How the values were obtained:
[1] = molecular target: T1, Amine oxidase [flavin-containing] B (Homo sapiens, UniProt P27338); test: biochemical; assay type: cell-based, BTI-TN-5B1-4
T1 sequence (P27338 whole entry): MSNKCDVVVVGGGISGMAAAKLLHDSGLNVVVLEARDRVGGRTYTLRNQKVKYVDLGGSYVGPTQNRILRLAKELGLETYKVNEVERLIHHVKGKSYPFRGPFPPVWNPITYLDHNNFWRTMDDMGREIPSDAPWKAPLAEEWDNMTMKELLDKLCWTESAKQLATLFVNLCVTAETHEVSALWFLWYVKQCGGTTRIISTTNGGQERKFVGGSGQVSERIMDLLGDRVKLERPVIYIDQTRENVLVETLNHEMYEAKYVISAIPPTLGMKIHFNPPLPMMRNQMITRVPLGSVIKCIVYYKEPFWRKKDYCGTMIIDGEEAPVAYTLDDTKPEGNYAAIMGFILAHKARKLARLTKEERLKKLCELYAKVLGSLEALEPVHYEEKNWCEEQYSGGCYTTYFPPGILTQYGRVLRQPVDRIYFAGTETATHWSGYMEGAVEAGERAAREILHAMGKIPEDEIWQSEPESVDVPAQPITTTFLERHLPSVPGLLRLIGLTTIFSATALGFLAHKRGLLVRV
Description: Inhibition of human recombinant MAO-B expressed in baculovirus infected BTI-TN-5B1-4 insect cells assessed as decrease in H2O2 production using p-tyramine as substrate incubated for 20 mins by horse-radish peroxidase/amplex red-based fluorescence method

[2] = molecular target: T2, Amine oxidase [flavin-containing] A (Homo sapiens, UniProt P21397); test: biochemical
T2 sequence (P21397 whole entry): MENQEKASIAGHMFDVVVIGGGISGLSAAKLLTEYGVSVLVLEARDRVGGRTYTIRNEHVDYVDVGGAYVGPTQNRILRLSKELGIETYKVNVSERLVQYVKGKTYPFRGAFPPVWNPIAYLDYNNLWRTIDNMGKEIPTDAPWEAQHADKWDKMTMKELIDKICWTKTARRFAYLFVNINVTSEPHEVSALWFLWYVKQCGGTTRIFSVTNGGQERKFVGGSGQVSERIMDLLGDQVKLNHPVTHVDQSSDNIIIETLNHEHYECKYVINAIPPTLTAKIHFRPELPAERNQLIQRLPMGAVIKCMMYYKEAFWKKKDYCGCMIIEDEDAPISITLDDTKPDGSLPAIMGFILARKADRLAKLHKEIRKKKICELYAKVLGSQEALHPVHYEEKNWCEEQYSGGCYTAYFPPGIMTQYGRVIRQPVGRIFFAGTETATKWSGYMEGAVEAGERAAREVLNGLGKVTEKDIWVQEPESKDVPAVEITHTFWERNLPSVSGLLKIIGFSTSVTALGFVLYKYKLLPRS
Description: Inhibition of human recombinant MAO-A expressed in baculovirus infected BTI-TN-5B1-4 insect cells assessed as decrease in H2O2 production using p-tyramine as substrate incubated for 20 mins by horse-radish peroxidase/amplex red-based fluorescence method

[3] = molecular target: Cholinesterase (Homo sapiens) (UniProt P06276); test: Inhibition of BuChE in human serum using S-butyrylthiocholine iodide as substrate at 100 uM preincubated with enzyme for 10 mins followed by substrate addition measured for 15 mins by Ellman's method relative to control; assay type: cell-free
Sequence of Cholinesterase (Homo sapiens) (P06276 whole entry): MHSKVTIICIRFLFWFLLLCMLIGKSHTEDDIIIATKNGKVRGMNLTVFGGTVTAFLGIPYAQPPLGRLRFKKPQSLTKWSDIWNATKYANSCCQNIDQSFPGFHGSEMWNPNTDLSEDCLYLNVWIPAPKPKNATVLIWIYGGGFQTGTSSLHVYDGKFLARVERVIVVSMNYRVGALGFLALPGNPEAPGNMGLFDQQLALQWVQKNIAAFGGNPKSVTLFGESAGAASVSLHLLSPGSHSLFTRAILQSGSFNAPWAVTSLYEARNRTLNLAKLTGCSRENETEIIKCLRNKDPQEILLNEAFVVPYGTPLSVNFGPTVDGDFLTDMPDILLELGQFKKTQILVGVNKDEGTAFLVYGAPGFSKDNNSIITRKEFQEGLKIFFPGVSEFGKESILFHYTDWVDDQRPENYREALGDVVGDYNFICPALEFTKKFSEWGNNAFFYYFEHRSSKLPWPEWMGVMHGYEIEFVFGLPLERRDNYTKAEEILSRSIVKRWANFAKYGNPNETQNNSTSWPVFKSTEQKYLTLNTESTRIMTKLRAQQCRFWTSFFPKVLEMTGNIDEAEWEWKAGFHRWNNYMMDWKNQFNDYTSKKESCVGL

Homo sapiens = organism: Homo sapiens; test: Selectivity index, ratio of IC50 for human recombinant MAO-A expressed in baculovirus infected BTI-TN-5B1-4 cells to IC50 for human recombinant MAO-B expressed in baculovirus infected BTI-TN-5B1-4 cells
HepG2 = test: Cytotoxicity against human HepG2 cells assessed as mitochondrial dysfunction at 25 to 50 uM; assay type: cell-based; settings: hepg2, 50 µM
[4] = Cytotoxicity against human HepG2 cells assessed as cell viability at 50 uM measured after 72 hrs by MTT assay relative to control; assay type: cell-based; settings: read-out: Activity
[5] = molecular target: T1, Amine oxidase [flavin-containing] B; test: Potency index, ratio of selegiline IC50 to compound IC50 for human recombinant MAO-B expressed in baculovirus infected BTI-TN-5B1-4 insect cells using p-tyramine as substrate
Acetylcholinesterase = Acetylcholinesterase (Homo sapiens, UniProt P22303); test: Inhibition of AChE in human erythrocytes using acetylthiocholine iodide as substrate preincubated with enzyme for 10 mins followed by substrate addition measured for 15 mins by Ellman's method; assay type: cell-based
Sequence of Acetylcholinesterase (P22303 whole entry): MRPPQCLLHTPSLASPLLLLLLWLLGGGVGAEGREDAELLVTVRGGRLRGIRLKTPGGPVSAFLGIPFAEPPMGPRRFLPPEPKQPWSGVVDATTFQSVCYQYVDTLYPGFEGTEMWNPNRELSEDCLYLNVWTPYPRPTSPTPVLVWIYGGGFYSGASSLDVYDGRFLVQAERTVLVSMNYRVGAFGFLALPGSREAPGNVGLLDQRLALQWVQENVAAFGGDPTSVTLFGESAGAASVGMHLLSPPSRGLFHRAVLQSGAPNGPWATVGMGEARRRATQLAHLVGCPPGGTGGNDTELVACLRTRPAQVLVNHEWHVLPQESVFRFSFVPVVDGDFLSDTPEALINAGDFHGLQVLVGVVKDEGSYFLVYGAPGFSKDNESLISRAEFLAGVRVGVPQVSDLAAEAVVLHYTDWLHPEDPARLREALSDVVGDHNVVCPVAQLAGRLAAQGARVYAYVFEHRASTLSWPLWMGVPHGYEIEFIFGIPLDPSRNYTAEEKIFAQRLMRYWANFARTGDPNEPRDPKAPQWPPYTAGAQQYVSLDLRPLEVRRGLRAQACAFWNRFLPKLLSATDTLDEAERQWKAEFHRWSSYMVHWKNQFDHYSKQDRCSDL

[6] = Stability of the compound in ACN at 50 uM measured under daylight exposure for 76 days by UV-visible spectra analysis; assay type: physicochemical; settings: 1824 h
[7] = Stability of the compound in MeOH at 50 uM measured under daylight exposure for 3 days by UV-visible spectra analysis; assay type: physicochemical; settings: 72 h
[8] = Stability of the compound in dry MeOH assessed as compound crystallization at 10 mM measured under daylight for 43 hrs by LC/ESI-MS analysis; assay type: physicochemical; settings: 10000 µM
[9] = Stability of the compound in dry MeOH at 1 to 10 mM measured under daylight exposure for 24 to 96 hrs by LC/ESI-MS analysis; assay type: physicochemical; settings: 10000 µM
[10] = Stability of the compound in DMSO at 50 uM measured under daylight exposure for 76 days by UV-visible spectra analysis; assay type: physicochemical; settings: 1824 h
[11] = Stability of the compound in dry MeOH assessed as dimers at 1 mM measured under daylight exposure for >96 hrs by LC/ESI-MS analysis; assay type: physicochemical; settings: 1000 µM
[12] = Stability of the compound in dry MeOH at 1 mM measured under daylight for 62 days by LC/ESI-MS analysis; assay type: physicochemical; settings: 1488 h, 1000 µM
[13] = Stability of the compound in MeOH assessed as compound purity level at 50 uM measured under daylight exposure for 76 days by LC/ESI-MS analysis; assay type: physicochemical; settings: methanol; read-out: Stability
[14] = molecular target: T1, Amine oxidase [flavin-containing] B; test: Competitive inhibition of human recombinant MAO-B expressed in baculovirus infected BTI-TN-5B1-4 insect cells using p-tyramine as substrate by Dixon- plot analysis
[15] = molecular target: T1, Amine oxidase [flavin-containing] B; test: Competitive inhibition of human recombinant MAO-B expressed in baculovirus infected BTI-TN-5B1-4 insect cells using p-tyramine as substrate by Lineweaver-Burk plot analysis

SMILES	Ki [1]	IC50 [2]	inhibition [3]	Ratio IC50 (Homo sapiens)	also measured
O=C(Nc1cnc(Cl)c(Cl)c1)c1ccc2[nH]ncc2c1	2.39 nM	> 10000 nM	9.23%	> 1840	
O=C(Nc1ccc(F)c(Cl)c1)c1ccc2[nH]ncc2c1			7.21%		
O=C(Nc1ccc(Cl)c(Cl)c1)c1ccc2[nH]ncc2c1			11.3%	17100	Activity (HepG2): Non-Toxic; viability at 72 h, 50 µM [4]: 66.3%; Ratio IC50 [5]: 9
Cn1ncc2cc(C(=O)Nc3ccc(Cl)c(Cl)c3)ccc21			11.1%		IC50 (Acetylcholinesterase): 78300 nM
Clc1cc(/N=C/c2ccc3[nH]ncc3c2)cnc1Cl	0.57 nM	> 10000 nM	9.64%	> 7810	IC50 [1]: 1.28 nM; Stability [6]: Stable; Ratio IC50 [5]: 4.3; Stability [7]: Stable; Stability [8]: Unstable; Stability [9]: Stable; Stability [10]: Stable; Stability [11]: Unstable; Stability [12]: Unstable; remaining at 1824 h, 50 µM [13]: 68.1%
Fc1cc(/N=C/c2ccc3[nH]ncc3c2)ccc1Cl	0.84 nM		6.97%	5240	
Clc1ccc(/N=C/c2ccc3[nH]ncc3c2)cc1Cl		> 10000 nM	9.01%		Activity (HepG2): Non-Toxic; viability at 72 h, 50 µM [4]: 80.6%; Stability [6]: Stable; Stability [10]: Stable
COCCn1ncc2cc(/C=N/c3ccc(Cl)c(Cl)c3)ccc21	0.57 nM	> 10000 nM	2.27%	3160	IC50 [1]: 1.29 nM
O=C(Nc1ccc(Cl)c(F)c1)c1ccc2[nH]ncc2c1	0.29 nM		2.23%	15000	
COCCn1ncc2cc(C(=O)Nc3ccc(Cl)c(Cl)c3)ccc21			9.58%	> 2660	Ki [2]: 0.48 nM
Cn1ncc2cc(/C=N/c3ccc(Cl)c(Cl)c3)ccc21	0.46 nM	> 10000 nM	8.57%	9710	Ki [14]: 0.63 nM; inhibition (INH) [15]: Active
Fc1ccc(/N=C/c2ccc3[nH]ncc3c2)cc1Cl	0.93 nM	> 10000 nM	4.56%	4760	

From ChEMBL document CHEMBL4351013, “Carboxamides vs. methanimines: Crystal structures, binding interactions, photophysical studies, and biological evaluation of (indazole-5-yl)methanimines as monoamine oxidase B and acetylcholinesterase inhibitors” (Eur J Med Chem, 2019)
